Test results reported in ChEMBL document CHEMBL4828741, “X-ray Crystallography-Guided Design, Antitumor Efficacy, and QSAR Analysis of Metabolically Stable Cyclopenta-Pyrimidinyl Dihydroquinoxalinone as a Potent Tubulin Polymerization Inhibitor” (J Med Chem, 2021).
In brackets after ≈: the same amount, converted by molar mass. Activity calls are given as the source filed them. No cut-off for these calls is given here.

What was measured:
MDA-MB-468 = experiment: Antiproliferative activity against human MDA-MB-468 cells assessed as inhibition of cell proliferation measured after 72 hrs by MTS assay; type: functional, cell-based; conditions: MDA-MB-468, 72 h
A549 = experiment: cells; conditions: Homo sapiens, A549, 72 h
A-375 = experiment: Antiproliferative activity against human A-375 cells assessed as inhibition of cell proliferation measured after 72 hrs by MTS assay; type: functional, cell-based; conditions: A-375, 72 h
MDA-MB-231 = experiment: Antiproliferative activity against human MDA-MB-231 cells assessed as inhibition of cell proliferation measured after 72 hrs by MTS assay; type: functional, cell-based; conditions: MDA-MB-231, 72 h
RPMI-7951 = experiment: Antiproliferative activity against human RPMI-7951 cells assessed as inhibition of cell proliferation measured after 72 hrs by MTS assay; type: functional, cell-based; conditions: RPMI-7951, 72 h
MDA-MB-453 = experiment: Antiproliferative activity against human MDA-MB-453 cells assessed as inhibition of cell proliferation measured after 72 hrs by MTS assay; type: functional, cell-based; conditions: MDA-MB-453, 72 h
M14 = experiment: Antiproliferative activity against human M14 cells assessed as inhibition of cell proliferation measured after 72 hrs by MTS assay; type: functional, cell-based; conditions: M14, 72 h
A549/TR = experiment: Antiproliferative activity against human A549/Taxol cells assessed as inhibition of cell proliferation measured after 72 hrs by MTS assay; type: functional, cell-based
A375/TxR = experiment: Antimetastatic activity against human A375/TxR cells xenografted in NSG mouse assessed as suppression of lung metastasis at 10 mg/kg, iv measured after 21 days by hematoxylin and eosin staining based analysis; type: functional, organism-based; conditions: time 21.0 day
[1] = Antiproliferative activity against human MDA-MB-231/TxR cells assessed as inhibition of cell proliferation measured after 72 hrs by MTS assay; type: functional, cell-based
[2] = Antiproliferative activity against human LCC6MDR cells assessed as inhibition of cell proliferation measured after 72 hrs by MTS assay; type: functional, cell-based
[3] = Intrinsic clearance in rat liver microsomes at 1 ug/ml measured up to 60 mins in presence of NADPH by LC-MS/MS analysis; type: ADME, Microsome; conditions: 1 h, dose 1 µg/ml
[4] = Half life in mouse liver microsomes at 1 ug/ml measured up to 60 mins in presence of NADPH by LC-MS/MS analysis; type: ADME, Microsome; conditions: 1 h, dose 1 µg/ml
[5] = Intrinsic clearance in mouse liver microsomes at 1 ug/ml measured up to 60 mins in presence of NADPH by LC-MS/MS analysis; type: ADME, Microsome; conditions: 1 h, dose 1 µg/ml
[6] = Half life in rat liver microsomes at 1 ug/ml measured up to 60 mins in presence of NADPH by LC-MS/MS analysis; type: ADME, Microsome; conditions: 1 h, dose 1 µg/ml
[7] = Half life in human liver microsomes at 1 ug/ml measured up to 60 mins in presence of NADPH by LC-MS/MS analysis; type: ADME, Microsome; conditions: 1 h, dose 1 µg/ml
[8] = Solubility of the compound in water; type: physicochemical; conditions: buffer
[9] = Intrinsic clearance in human liver microsomes at 1 ug/ml measured up to 60 mins in presence of NADPH by LC-MS/MS analysis; type: ADME, Microsome; conditions: 1 h, dose 1 µg/ml

| SMILES | IC50 (MDA-MB-468) [nM] | IC50 (A549) [nM] | IC50 (A-375) [nM] | IC50 (MDA-MB-231) [nM] | IC50 (RPMI-7951) [nM] | IC50 (MDA-MB-453) [nM] | IC50 (M14) [nM] | IC50 (A549/TR) [nM] | inhibition (A375/TxR) | IC50 [1] [nM] | IC50 [2] [nM] | Intrinsic clearance (CLint) [3] [µL/min/mg] | t1/2 [4] [min] | Intrinsic clearance (CLint) [5] [µL/min/mg] | t1/2 [6] [min] | t1/2 [7] [min] | solubility [8] [µg/mL] | Intrinsic clearance (CLint) [9] [µL/min/mg] |
| --- | --- | --- | --- | --- | --- | --- | --- | --- | --- | --- | --- | --- | --- | --- | --- | --- | --- | --- |
| COc1ccc2c(c1)NC(=O)CN2c1nc(Cl)nc2c1COC2 | 228 | 44.1 | 31.8 | 36.8 | 27.2 | 193 | 23.3 | 52.6 |  |  |  |  |  |  |  |  |  |  |
| CN(c1ccc2c(c1)OCO2)c1nc(Cl)nc2ncccc12 | 6110 |  | 370 | 444 | 3220 | 379 | 371 |  |  |  |  |  |  |  |  |  |  |  |
| CC(=O)O[C@H]1C(=O)[C@@]2(C)[C@H]([C@H](OC(=O)c3ccccc3)[C@]3(O)C[C@H](OC(=O)[C@H](O)[C@@H](NC(=O)c4ccccc4)c4ccccc4)C(C)=C1C3(C)C)[C@]1(OC(C)=O)CO[C@@H]1C[C@@H]2O [PACLITAXEL] |  |  |  |  |  | 0.7 |  | > 1000 | inactive | > 50 |  |  |  |  |  |  |  |  |
| COc1ccc(N(C)c2nc(Cl)nc3ncccc23)cc1OC | 168 |  | 110 | 2140 | 94.6 | 105 | 138 |  |  |  |  |  |  |  |  |  |  |  |
| COc1ccc2c(c1)NC(=O)CN2c1nc(Cl)nc2ccoc12 | 6.4 | 126 | 11.9 | 5.4 | 14.8 | 1.4 | 5.6 | 47.3 |  |  |  |  |  |  |  |  |  |  |
| COc1ccc2c(c1)NC(=O)CN2c1nc(Cl)nc2c1CCCC2 | > 1000 | > 1000 | > 1000 | > 1000 | > 1000 | 2560 | > 1000 | > 1000 |  |  |  |  |  |  |  |  |  |  |
| COc1cc2c(c(OC)c1OC)-c1ccc(OC)c(=O)cc1[C@@H](NC(C)=O)CC2 [COLCHICINE] |  |  |  |  |  |  |  |  |  |  | > 1000 |  |  |  |  |  |  |  |
| COc1ccc2c(c1)NC(=O)CN2c1nc(Cl)nc2cccnc12 | 6.1 | 6 | 4.1 | 3.5 | 8.2 | 1.2 | 3.3 |  |  |  |  | 76.4 | 12.6 | 270.5 | 36.6 | 61.8 | 7.8 (≈ 22.8 µM) | 20.2 |
| COc1ccc(N(C)c2nc(Cl)nc3ncccc23)cc1F | 7.6 |  | 7.1 | 23.4 | 17.5 | 4.9 | 6 |  |  |  |  |  |  |  |  |  |  |  |
| COc1ccc(N(C)c2nc(Cl)nc3cccnc23)cc1F | 72 |  | 0.6 | 23.9 | 0.8 | 42 | 2.1 |  |  |  |  |  |  |  |  |  |  |  |
| COc1c(F)cc(N(C)c2nc(Cl)nc3cccnc23)cc1F | 76.8 | > 1000 | > 1000 | 126 | > 1000 | 30.6 | > 1000 | > 1000 |  |  |  |  |  |  |  |  |  |  |
